US11292807B2 (OCEANS LTD., priority 2015, dated 2022)
Like-named read-outs stand apart in the source and are kept apart here.

Assays:
MDA-MB [1] = conditions: MDA-MB
MDA-MB [2] = experiment: cells; conditions: Homo sapiens, read-out: Average cell viability, MDA-MB
PC3 = experiment: CIMA assay, cell viability, PC3; conditions: for Fold change in viability AVG / In vitro activity against cancer cell lines, PC3 AVG: PC3
[3] = system: U373 (glioblastoma-astrocytoma); experiment: CIMA assay, cell viability, U373; conditions: for Fold change in viability AVG / In vitro activity against cancer cell lines, U373 AVG: U373
[4] = system: SKOV3 (ovarian adenocarcinoma); experiment: CIMA assay, cell viability, SKOV3; conditions: for Fold change in viability AVG / In vitro activity against cancer cell lines, SKOV AVG: SKOV
[5] = system: THP-1 (acute monocytic leukemia); experiment: CIMA assay, cell viability, THP-1; conditions: for Fold change in viability AVG / In vitro activity against cancer cell lines, THP-1 AVG: THP-1
[6] = CIMA assay, cell viability, CCD1079SK; conditions: human, Average cell viability, CCD
[7] = system: CCD1079SK (fibroblast, noncancerous but proliferating); experiment: CIMA assay, cell viability, CCD1079SK; conditions: CCD
A549 (lung carcinoma) = experiment: CIMA assay (colorimetric indicator of metabolic activity), cell viability, A549; conditions: for Fold change in viability AVG / In vitro activity against cancer cell lines, A549 AVG: A549

CCCCCCCCCCCCCCCC(=O)OCC(COC1OC(CO)C(O)C(O)C1O)OC(=O)CCCCCCCCCCCCC (centres unmarked) [Compound 16, MGDG C16:0/C14:0]
Fold change in viability AVG (MDA-MB [1]; 1 ug/mL): 1.08
In vitro activity against cancer cell lines, MDA-MB AVG (MDA-MB [1]; 1 ug/mL): 1.08
Fold change in viability AVG (MDA-MB [1]; 10 ug/mL): 1.09
In vitro activity against cancer cell lines, MDA-MB AVG (MDA-MB [1]; 10 ug/mL): 1.09
Fold change in viability AVG (MDA-MB [1]; 50 ug/mL): 0.76
In vitro activity against cancer cell lines, MDA-MB AVG (MDA-MB [1]; 50 ug/mL): 0.76
Fold change in viability AVG (MDA-MB [1]; 100 ug/mL): 0.21
In vitro activity against cancer cell lines, MDA-MB AVG (MDA-MB [1]; 100 ug/mL): 0.21
viability at 1 µg/mL (MDA-MB [2]; 1 ug/mL): 99%
viability at 10 µg/mL (MDA-MB [2]; 10 ug/mL): 101%
viability at 50 µg/mL (MDA-MB [2]; 50 ug/mL): 70%
viability at 100 µg/mL (MDA-MB [2]; 100 ug/mL): 20%
viability at 1 µg/mL (PC3; Homo sapiens, PC-3, read-out: Average cell viability, PC3, 1 ug/mL): 100%
viability at 10 µg/mL (PC3; Homo sapiens, PC-3, read-out: Average cell viability, PC3, 10 ug/mL): 96%
viability at 50 µg/mL (PC3; Homo sapiens, PC-3, read-out: Average cell viability, PC3, 50 ug/mL): 72%
viability at 100 µg/mL (PC3; Homo sapiens, PC-3, read-out: Average cell viability, PC3, 100 ug/mL): 9%
Fold change in viability AVG (PC3; 1 ug/mL): 1.04
In vitro activity against cancer cell lines, PC3 AVG (PC3; 1 ug/mL): 1.04
Fold change in viability AVG (PC3; 10 ug/mL): 0.99
In vitro activity against cancer cell lines, PC3 AVG (PC3; 10 ug/mL): 0.99
Fold change in viability AVG (PC3; 50 ug/mL): 0.75
In vitro activity against cancer cell lines, PC3 AVG (PC3; 50 ug/mL): 0.75
Fold change in viability AVG (PC3; 100 ug/mL): 0.10
In vitro activity against cancer cell lines, PC3 AVG (PC3; 100 ug/mL): 0.10
viability at 1 µg/mL ([3]; Homo sapiens, U373 MG, read-out: Average cell viability, U373, 1 ug/mL): 108%
viability at 10 µg/mL ([3]; Homo sapiens, U373 MG, read-out: Average cell viability, U373, 10 ug/mL): 95%
viability at 50 µg/mL ([3]; Homo sapiens, U373 MG, read-out: Average cell viability, U373, 50 ug/mL): 48%
viability at 100 µg/mL ([3]; Homo sapiens, U373 MG, read-out: Average cell viability, U373, 100 ug/mL): 9%
Fold change in viability AVG ([3]; 1 ug/mL): 1.09
In vitro activity against cancer cell lines, U373 AVG ([3]; 1 ug/mL): 1.09
Fold change in viability AVG ([3]; 10 ug/mL): 0.97
In vitro activity against cancer cell lines, U373 AVG ([3]; 10 ug/mL): 0.97
Fold change in viability AVG ([3]; 50 ug/mL): 0.49
In vitro activity against cancer cell lines, U373 AVG ([3]; 50 ug/mL): 0.49
Fold change in viability AVG ([3]; 100 ug/mL): 0.09
In vitro activity against cancer cell lines, U373 AVG ([3]; 100 ug/mL): 0.09
viability at 1 µg/mL ([4]; Homo sapiens, SK-OV-3, read-out: Average cell viability, SKOV, 1 ug/mL): 102%
viability at 10 µg/mL ([4]; Homo sapiens, SK-OV-3, read-out: Average cell viability, SKOV, 10 ug/mL): 95%
viability at 50 µg/mL ([4]; Homo sapiens, SK-OV-3, read-out: Average cell viability, SKOV, 50 ug/mL): 83%
viability at 100 µg/mL ([4]; Homo sapiens, SK-OV-3, read-out: Average cell viability, SKOV, 100 ug/mL): 68%
Fold change in viability AVG ([4]; 1 ug/mL): 1.09
In vitro activity against cancer cell lines, SKOV AVG ([4]; 1 ug/mL): 1.09
Fold change in viability AVG ([4]; 10 ug/mL): 1.02
In vitro activity against cancer cell lines, SKOV AVG ([4]; 10 ug/mL): 1.02
Fold change in viability AVG ([4]; 50 ug/mL): 0.90
In vitro activity against cancer cell lines, SKOV AVG ([4]; 50 ug/mL): 0.90
Fold change in viability AVG ([4]; 100 ug/mL): 0.74
In vitro activity against cancer cell lines, SKOV AVG ([4]; 100 ug/mL): 0.74
viability at 1 µg/mL ([5]; Homo sapiens, THP-1, read-out: Average cell viability, THP-1, 1 ug/mL): 101%
viability at 10 µg/mL ([5]; Homo sapiens, THP-1, read-out: Average cell viability, THP-1, 10 ug/mL): 101%
viability at 50 µg/mL ([5]; Homo sapiens, THP-1, read-out: Average cell viability, THP-1, 50 ug/mL): 86%
viability at 100 µg/mL ([5]; Homo sapiens, THP-1, read-out: Average cell viability, THP-1, 100 ug/mL): 46%
Fold change in viability AVG ([5]; 1 ug/mL): 1.14
In vitro activity against cancer cell lines, THP-1 AVG ([5]; 1 ug/mL): 1.14
Fold change in viability AVG ([5]; 10 ug/mL): 1.15
In vitro activity against cancer cell lines, THP-1 AVG ([5]; 10 ug/mL): 1.15
Fold change in viability AVG ([5]; 50 ug/mL): 0.75
In vitro activity against cancer cell lines, THP-1 AVG ([5]; 50 ug/mL): 0.75
Fold change in viability AVG ([5]; 100 ug/mL): 0.52
In vitro activity against cancer cell lines, THP-1 AVG ([5]; 100 ug/mL): 0.52
viability at 72 h, 1 ug/mL ([6]; CCD1079SK fibroblast cells (noncancerous, proliferating), 1 ug/mL): 106%
viability at 72 h, 10 ug/mL ([6]; CCD1079SK fibroblast cells (noncancerous, proliferating), 10 ug/mL): 98%
viability at 72 h, 50 ug/mL ([6]; CCD1079SK fibroblasts (noncancerous, proliferating), 50 ug/mL): 44%
viability at 72 h, 100 ug/mL ([6]; CCD1079SK fibroblasts (noncancerous, proliferating), 100 ug/mL): 19%
Fold change in viability AVG ([7]; 1 ug/mL): 1.16
Fold change in viability AVG ([7]; 10 ug/mL): 1.08
Fold change in viability AVG ([7]; 50 ug/mL): 0.48
Fold change in viability AVG ([7]; 100 ug/mL): 0.21
Fold change in viability AVG (A549 (lung carcinoma); 1 ug/mL): 1.13
In vitro activity against cancer cell lines, A549 AVG (A549 (lung carcinoma); 1 ug/mL): 1.13
Fold change in viability AVG (A549 (lung carcinoma); 10 ug/mL): 1.16
In vitro activity against cancer cell lines, A549 AVG (A549 (lung carcinoma); 10 ug/mL): 1.16
Fold change in viability AVG (A549 (lung carcinoma); 50 ug/mL): 0.99
In vitro activity against cancer cell lines, A549 AVG (A549 (lung carcinoma); 50 ug/mL): 0.99
Fold change in viability AVG (A549 (lung carcinoma); 100 ug/mL): 0.60
In vitro activity against cancer cell lines, A549 AVG (A549 (lung carcinoma); 100 ug/mL): 0.60
viability at 1 µg/mL (A549 (lung carcinoma); Homo sapiens, A549, read-out: Average cell viability, A549, 1 ug/mL): 97%
viability at 10 µg/mL (A549 (lung carcinoma); Homo sapiens, A549, read-out: Average cell viability, A549, 10 ug/mL): 99%
viability at 50 µg/mL (A549 (lung carcinoma); Homo sapiens, A549, read-out: Average cell viability, A549, 50 ug/mL): 85%
viability at 100 µg/mL (A549 (lung carcinoma); Homo sapiens, A549, read-out: Average cell viability, A549, 100 ug/mL): 52%
